The test system of data set [1] is PC-12. The data set can be described thus: Cytotoxicity against rat PC-12 cells assessed as cell death at 0.25 uM after 72 hrs incubation by LDH-based cytotoxic assay. The data set is classed as toxicity. The note with it: pc-12, 72 h.
Data set [2] deals with PC-12. The data set is described as follows: Neuroprotective activity in rat PC-12 cells assessed as increase in NGF-mediated neurite outgrowth by measuring differentiated cells at 5 to 250 nM incubated for 72 hrs by bright-field microscopic analysis. The data set is classed as functional, cell-based. The note with it: dose 5-250 nM.
The target of data set [3] is Sigma non-opioid intracellular receptor 1 (Cavia porcellus, UniProt Q60492). The data set is described as follows: Displacement of [3H](+)-pentazocine from sigma 1 receptor in guinea pig brain membranes measured after 120 mins by scintillation counting method. The data set is classed as cell membranes, Membrane. On the technique in general: In a radioligand displacement assay an active substance lowers the binding of a labelled ligand.

The test system of data set [4] is PC-12. The data set is described as follows: Neuroprotective activity in rat PC-12 cells assessed as increase in NGF-mediated neurite outgrowth by measuring differentiated cells at 5 to 250 nM in presence of 1 uM NE-100 incubated for 72 hrs by bright-field microscopic analysis. The class given is functional, cell-based. To be noted: dose 5-250 nM.
Data set [5] addresses Sigma non-opioid intracellular receptor 1 (Cavia porcellus) (UniProt Q60492). The data set can be described thus: Displacement of [3H](+)-pentazocine from sigma 1 receptor in guinea pig brain membranes measured after 120 mins by scintillation counting method relative to control. The data set is classed as cell membranes. To be noted: Membrane.

This note sets out measurements from ChEMBL document CHEMBL5230153, “Bitopic Sigma 1 Receptor Modulators to Shed Light on Molecular Mechanisms Underpinning Ligand Binding and Receptor Oligomerization” (J Med Chem, 2021).

Structures are written as SMILES. Active and inactive are the calls of the source. No cut-off for these calls is given here.

As usually defined, the Ki is a measure of affinity in units of concentration, obtained from inhibition or displacement. A higher Ki goes with a looser hold on the target. The inhibition is how much of the control response was suppressed. Read a high inhibition as a strong effect.

Chain of Sigma non-opioid intracellular receptor 1 (Q60492 whole entry): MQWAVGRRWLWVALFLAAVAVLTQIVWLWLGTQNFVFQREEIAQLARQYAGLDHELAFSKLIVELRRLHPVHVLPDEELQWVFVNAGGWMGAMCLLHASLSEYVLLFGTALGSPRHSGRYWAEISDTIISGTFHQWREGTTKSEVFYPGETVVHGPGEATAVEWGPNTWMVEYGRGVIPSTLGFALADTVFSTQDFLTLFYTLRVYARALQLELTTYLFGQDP
Chain of Sigma non-opioid intracellular receptor 1 (Cavia porcellus) (Q60492 whole entry): as above

On to `C[C@H](CCN1CCC(NC(=O)CC(=O)NC2CCN(CC[C@@H](C)c3ccc(-c4ccccc4)cc3)CC2)CC1)c1ccc(-c2ccccc2)cc1`, for which the Activity result in data set [1] is recorded as “Non-Toxic”. Also, in data set [2], the outcome was Active. In data set [3], affinity was put at a Ki of 200 nM. In data set [4], the result was inactive.

For `C[C@H](CCN1CCCCC1)c1ccc(-c2ccccc2)cc1`, the Activity result in data set [1] is “Non-Toxic”. For the same compound, the outcome in data set [2] was Active. Further, the outcome in data set [4] was inactive.

In the case of `C[C@H](CCN1CCC(NC(=O)CCOCCOCCOCCOCCOCCOCCOCCOCCOCCC(=O)NC2CCN(CC[C@@H](C)c3ccc(-c4ccccc4)cc3)CC2)CC1)c1ccc(-c2ccccc2)cc1`, in data set [3], the Ki was found to be 799 nM.

Regarding `CC(=O)NC1CCN(CC[C@@H](C)c2ccc(-c3ccccc3)cc2)CC1`, the Activity result in data set [1] is reported as “Non-Toxic”. Further, in data set [2], the result was Active. This compound also had a Ki in data set [3] of 11 nM. The result in data set [4] was inactive.

In data set [3], `C[C@H](CCN1CCC(NC(=O)CCCC(=O)NC2CCN(CC[C@@H](C)c3ccc(-c4ccccc4)cc3)CC2)CC1)c1ccc(-c2ccccc2)cc1` gave a Ki of 622 nM. This counts as sub-micromolar.

As to `C[C@H](CCN1CCC(NC(=O)c2ccccc2C(=O)NC2CCN(CC[C@@H](C)c3ccc(-c4ccccc4)cc3)CC2)CC1)c1ccc(-c2ccccc2)cc1`, the inhibition constant (Ki) in data set [3] is 134 nM.

Regarding `C[C@H](CCN1CCC(NC(=O)COCCOCCOCCOCCNC(=O)c2ccccc2)CC1)c1ccc(-c2ccccc2)cc1`, in data set [3], the inhibitory constant (Ki) came out at 1600 nM.

Turning to `C[C@H](CCN1CCC(NC(=O)COCCOCC(=O)NC2CCN(CC[C@@H](C)c3ccc(-c4ccccc4)cc3)CC2)CC1)c1ccc(-c2ccccc2)cc1`, the Activity result in data set [1] is “Non-Toxic”. For the same compound, in data set [2], the result was Active. The same compound showed an inhibitory constant (Ki) in data set [3] of 2.6 nM. Further, the result in data set [4] was inactive.

The compound `C[C@H](CCN1CCC(NC(=O)COCC(=O)NC2CCN(CC[C@@H](C)c3ccc(-c4ccccc4)cc3)CC2)CC1)c1ccc(-c2ccccc2)cc1` showed an inhibition in data set [5] of 0%.

As to `C[C@H](CCN1CCC(NC(=O)CCCCCC(=O)NC2CCN(CC[C@@H](C)c3ccc(-c4ccccc4)cc3)CC2)CC1)c1ccc(-c2ccccc2)cc1`, the affinity in data set [3] corresponds to a Ki of 1300 nM.
